Results published in article PMC10747602, “Dose Response, Dosimetric, and Metabolic Evaluations of Replacement PFAS Perfluoro-(2,5,8-trimethyl-3,6,9-trioxadodecanoic) Acid (HFPO-TeA)” (Toxics, 2023).
“And” between values parts separate entries of the source, which are not always exact repeats. Equal values may be shown once. Read-outs that look alike come from different tables or passages of the source.

Assay: Plasma HFPO-TeA dosimetry
Assay type: in vivo, Sprague Dawley rats
Experimental: Whole blood was collected from the retro-orbital plexus under isoflurane anesthesia 2 h following the first dose and by cardiac puncture 24 h after the last dosage. Blood was stored in anticoagulant potassium ethylenediaminetetraacetic acid (K3EDTA)-coated vacutainers, and then processed to isolate plasma via centrifugation. Animals were euthanized via carbon dioxide asphyxiation and subsequent exsanguination. Liver was collected, weighed, cubed, and divided into three aliquots. One aliquot of tissue was flash-frozen in liquid nitrogen and stored at −80 °C for analytical chemistry analyses. The remaining two aliquots were placed in RNALater and frozen for use in the companion transcriptomic study. Liver and plasma samples were received at the U.S. EPA Center for Computational Toxicology and Exposure, Advanced Analytical Chemistry Methods Branch in Research Triangle Park, North Carolina, USA, and stored at −80 °C prior to extraction.
Detailed information on the procedure, chemicals, and materials used in the plasma HFPO-TeA dosimetry work can be found in Supplementary Text S4 and Table S3. Plasma preparation (2 h and 5 days) was modified from Conley et al.’s work and is detailed in Supplementary Text S4 [45]. Briefly, aliquots (25 µL) were mixed with methanol (MeOH) and water (H2O) containing 0.1 M FA, spiked with the internal standard perfluorohexadecanoic acid (PFHxDA), and then denatured plasma proteins were precipitated using ACN. Samples were held at −20 °C then centrifuged for separation of the supernatant. Supernatants were collected and stored at −20 °C prior to analysis.
Targeted analysis of HFPO-TeA was conducted on a Sciex X500R QTOF liquid chromatography/mass spectrometer system operated in high-resolution MRM negative ion ESI mode. A Phenomenex C18 column (Kinetex XB-C18, 100 × 2.1 mm, particle size 2.6 µm) was used for chromatographic separation with the flow rate set to 0.2 mL/min and a temperature of 40 °C. […] Ammonium formate (4 mM) was added to both eluents. Additional details of the instrument parameters are provided in Table S8 and monitored transitions in Table S9. Matrix blanks were analyzed with each sample set. Statistical analysis is described in Supplementary Text S3. Normalization calculations are described in Supplementary Text S5 [47, 48].
All in vivo results values are reported as mean ± one standard deviation (SD). Statistical evaluation of in vivo data was conducted using a two-way analysis of variance (ANOVA) and Dunnett’s Test, both at α = 0.05 significance level, on GraphPad Prism v9.5.1.
Support ing Text S4: Plasma Dosimetry Chemicals, Materials, and Analysis Sprague Dawley rodent plasma (pooled, mixed sex) collected with ethylenediaminetetraacetic acid (EDTA) and sterile filtered (0.2 µm) was obtained from BioIVT (Westbury, NY, USA) and stored at -80 °C until use as the control matrix for generating calibration curves and as the matrix blank during plasma sample analysis. The HFPO-TeA (98.97% pure) used for calibration curve preparation was obtained from Oakwood Products Inc. (West Columbia, South Carolina, USA). Unlabeled perfluorohexadecanoic acid (CASRN 67905-19-5 | DTXSID1070800 | PFHxDA; ≥ 98% pure) was obtained from Cambridge Isotope Laboratories (Tewksbury, MA, USA) to serve as the internal standard since a labeled HFPO-TeA standard was not commercially available.
Aliquots (25 µL) were denatured with MeOH and H2O containing 0.1 M FA and then crashed using ACN. Volumes of MeOH, FA, and ACN were determined by the anticipated sample concentrations of […]
HFPO-TeA/mL plasma = 100 µL MeOH + 875 µL FA then 50 µL subsample removed and crashed with 950 µL ACN. Anticipated sample ranges were intentionally overlapped to account for HFPO-TeA concentration differences due to biological variability among the dose groups. The internal standard PFHxDA was added prior to the ACN crash. Samples were vortexed after the addition of each solvent. […]

For `O=C(O)C(F)(OC(F)(F)C(F)(OC(F)(F)C(F)(OC(F)(F)C(F)(F)C(F)(F)F)C(F)(F)F)C(F)(F)F)C(F)(F)F` (stereo not drawn) [HFPO-TeA, perfluoro-(2,5,8-trimethyl-3,6,9-trioxadodecanoic) acid], the “Plasma Conc.” value (0.3 mg/kg/day, F, 2 hours, individual rats) was 0.124 µg/mL and 0.187 µM and 0.0778 µg/mL and 0.117 µM and 0.0785 µg/mL and 0.119 µM, the “5D Plasma Conc.” value (0.3 mg/kg/day, F, 5 days of exposure, mean ± SD n=4) was 0.854 ± 0.086 µM and the “Plasma Conc.” value (0.3 mg/kg/day, F, 5 days, individual rats) was 0.492 µg/mL and 0.743 µM and 0.622 µg/mL and 0.939 µM. For the same compound, the “Plasma Conc.” value (0.3 mg/kg/day, M, 2 hours, individual rats) was 0.094 µg/mL and 0.142 µM and 0.086 µg/mL and 0.129 µM and 0.101 µg/mL and 0.153 µM, the “5D Plasma Conc.” value (0.3 mg/kg/day, M, 5 days of exposure, mean ± SD n=4) was 0.827 ± 0.071 µM and the concentration at 5 days (0.3 mg/kg/day, M, 5 days of exposure, mean ± SD n=4, read-out: 5D Plasma Conc.) was 827 nM. The “Plasma Conc.” value (0.3 mg/kg/day, M, 5 days, individual rats) was 0.586 µg/mL and 0.885 µM and 0.567 µg/mL, the “Plasma Conc.” value (0.9 mg/kg/day, F, 2 hours, individual rats) was 0.309 µg/mL and 0.467 µM and 0.418 µg/mL and 0.631 µM and 0.392 µg/mL and 0.592 µM and the “Plasma Conc.” value (0.9 mg/kg/day, M, 2 hours, individual rats) was 0.291 µg/mL and 0.439 µM and 0.450 µg/mL and 0.679 µM and 0.345 µg/mL and 0.521 µM. The “5D Plasma Conc.” value (0.9 mg/kg/day, M, 5 days of exposure, mean ± SD n=4) was 2.73 ± 0.45 µM, the concentration at 5 days (0.9 mg/kg/day, M, 5 days of exposure, mean ± SD n=4, read-out: 5D Plasma Conc.) was 2730 nM and the “Plasma Conc.” value (0.9 mg/kg/day, M, 5 days, individual rats) was 1.45 µg/mL and 2.19 µM and 2.16 µg/mL and 3.26 µM and 1.75 µg/mL and 2.65 µM. For the same compound, the “Plasma Conc.” value (2.3 mg/kg/day, F, 2 hours, individual rats) was 6.87 µg/mL and 10.4 µM and 7.78 µg/mL and 11.7 µM and 10.8 µg/mL and 16.3 µM and 14.6 µg/mL and 22.1 µM, the “Plasma Conc.” value (2.3 mg/kg/day, M, 2 hours, individual rats) was 11.4 µg/mL and 17.3 µM and 8.06 µg/mL and 12.2 µM and 7.45 µg/mL and 11.3 µM and the “Plasma Conc.” value (2.3 mg/kg/day, M, 5 days, individual rats) was 3.35 µg/mL and 5.06 µM and 3.50 µg/mL and 5.29 µM and 5.04 µg/mL and 7.61 µM. For the same compound, the “Plasma Conc.” value (6.3 mg/kg/day, F, 2 hours, individual rats) was 19.5 µg/mL and 29.5 µM and 43.9 µg/mL and 66.4 µM and 41.1 µg/mL and 62.0 µM and 36.3 µg/mL and 54.9 µM, the “5D Plasma Conc.” value (6.3 mg/kg/day, F, 5 days of exposure, mean ± SD n=4) was 52.6 ± 14.3 µM and the “Plasma Conc.” value (6.3 mg/kg/day, M, 2 hours, individual rats) was 24.4 µg/mL and 36.8 µM and 17.1 µg/mL and 25.8 µM and 24.9 µg/mL and 37.7 µM. For the same compound, the “Plasma Conc.” value (6.3 mg/kg/day, M, 5 days, individual rats) was 15.5 µg/mL and 15.1 µg/mL and 22.9 µM and 23.8 µM and 18.5 µg/mL and 28.0 µM, the “2 h Plasma Conc.” value (17 mg/kg/day, F, 2 h after first dose, mean ± SD n=4) was 224 ± 76 µM and the “Plasma Conc.” value (17 mg/kg/day, F, 2 hours, individual rats) was 197 µg/mL and 298 µM and 184 µg/mL and 278 µM and 94.0 µg/mL and 142 µM and 118 µg/mL and 179 µM. For the same compound, the “5D Plasma Conc.” value (17 mg/kg/day, F, 5 days of exposure, mean ± SD n=4) was 278 ± 28 µM, the “2 h Plasma Conc.” value (17 mg/kg/day, M, 2 h after first dose, mean ± SD n=4) was 126 ± 62 µM and the “Plasma Conc.” value (17 mg/kg/day, M, 2 hours, individual rats) was 60.6 µg/mL and 91.6 µM and 55.8 µg/mL and 84.3 µM and 73.0 µg/mL and 110 µM and 218 µM. The “5D Plasma Conc.” value (17 mg/kg/day, M, 5 days of exposure, mean ± SD n=4) was 168 ± 53 µM, the concentration at 5 days (17 mg/kg/day, M, 5 days of exposure, mean ± SD n=4, read-out: 5D Plasma Conc.) was 168000 nM and the “Plasma Conc.” value (17 mg/kg/day, M, 5 days, individual rats) was 65.4 µg/mL and 98.9 µM and 109 µg/mL and 165 µM and 150 µg/mL and 227 µM and 118 µg/mL and 179 µM. The concentration at 2 h (female, Sprague Dawley, rat, plasma, oral, 0.3 mg/kg/day, F, 2 h after first dose, mean ± SD n=4, read-out: 2 h Plasma Conc.) was 0.137 ± 0.033 µM, the concentration at 2 h (female, Sprague Dawley, rat, plasma, oral, 0.3 mg/kg/day, F, 2 hours, individual rats, read-out: Plasma Conc.) was 82 ng/mL and 124 nM and the concentration at 5 days (female, Sprague Dawley, rat, plasma, oral, 0.3 mg/kg/day, F, 5 days, individual rats, read-out: Plasma Conc.) was 550 ng/mL and 831 nM. For the same compound, the concentration at 2 h (female, Sprague Dawley, rat, plasma, oral, 0.9 mg/kg/day, F, 2 h after first dose, mean ± SD n=4, read-out: 2 h Plasma Conc.) was 0.62 ± 0.133 µM, the concentration at 2 h (female, Sprague Dawley, rat, plasma, oral, 0.9 mg/kg/day, F, 2 hours, individual rats, read-out: Plasma Conc.) was 523 ng/mL and 790 nM and the concentration at 5 days (female, Sprague Dawley, rat, plasma, oral, 0.9 mg/kg/day, F, 5 days of exposure, mean ± SD n=4, read-out: 5D Plasma Conc.) was 3620 ± 910 nM. For the same compound, the concentration at 5 days (female, Sprague Dawley, rat, plasma, oral, 0.9 mg/kg/day, F, 5 days, individual rats, read-out: Plasma Conc.) was 1870 ng/mL and 2.83 µM, the concentration at 2 h (female, Sprague Dawley, rat, plasma, oral, 2.3 mg/kg/day, F, 2 h after first dose, mean ± SD n=4, read-out: 2 h Plasma Conc.) was 15.1 ± 5.3 µM and the concentration at 5 days (female, Sprague Dawley, rat, plasma, oral, 2.3 mg/kg/day, F, 5 days of exposure, mean ± SD n=4, read-out: 5D Plasma Conc.) was 8920 ± 2360 nM. For the same compound, the concentration at 5 days (female, Sprague Dawley, rat, plasma, oral, 2.3 mg/kg/day, F, 5 days, individual rats, read-out: Plasma Conc.) was 5700 ng/mL and 8.62 µM, the concentration at 2 h (female, Sprague Dawley, rat, plasma, oral, 6.3 mg/kg/day, F, 2 h after first dose, mean ± SD n=4, read-out: 2 h Plasma Conc.) was 53.2 ± 16.5 µM and the concentration at 5 days (female, Sprague Dawley, rat, plasma, oral, 6.3 mg/kg/day, F, 5 days of exposure, mean ± SD n=4, read-out: 5D Plasma Conc.) was 52600 ± 14300 nM. The concentration at 5 days (female, Sprague Dawley, rat, plasma, oral, 6.3 mg/kg/day, F, 5 days, individual rats, read-out: Plasma Conc.) was 33900 ng/mL and 51.2 µM, the concentration at 2 h (female, Sprague Dawley, rat, plasma, oral, 17 mg/kg/day, F, 2 h after first dose, mean ± SD n=4, read-out: 2 h Plasma Conc.) was 224 ± 76 µM and the concentration at 5 days (female, Sprague Dawley, rat, plasma, oral, 17 mg/kg/day, F, 5 days, individual rats, read-out: Plasma Conc.) was 200000 ng/mL and 302 µM. The concentration at 2 h (male, Sprague Dawley, rat, plasma, oral, 0.3 mg/kg/day, M, 2 h after first dose, mean ± SD n=4, read-out: 2 h Plasma Conc.) was 0.15 ± 0.02 µM, the concentration at 2 h (male, Sprague Dawley, rat, plasma, oral, 0.3 mg/kg/day, M, 2 hours, individual rats, read-out: Plasma Conc.) was 117 ng/mL and 176 nM and the concentration at 5 days (male, Sprague Dawley, rat, plasma, oral, 0.3 mg/kg/day, M, 5 days, individual rats, read-out: Plasma Conc.) was 558 ng/mL and 843 nM. For the same compound, the concentration at 2 h (male, Sprague Dawley, rat, plasma, oral, 0.9 mg/kg/day, M, 2 h after first dose, mean ± SD n=4, read-out: 2 h Plasma Conc.) was 0.573 ± 0.113 µM, the concentration at 2 h (male, Sprague Dawley, rat, plasma, oral, 0.9 mg/kg/day, M, 2 hours, individual rats, read-out: Plasma Conc.) was 431 ng/mL and 651 nM and the concentration at 5 days (male, Sprague Dawley, rat, plasma, oral, 0.9 mg/kg/day, M, 5 days, individual rats, read-out: Plasma Conc.) was 1870 ng/mL and 2.83 µM. For the same compound, the concentration at 2 h (male, Sprague Dawley, rat, plasma, oral, 2.3 mg/kg/day, M, 2 h after first dose, mean ± SD n=4, read-out: 2 h Plasma Conc.) was 13.1 ± 2.8 µM, the concentration at 2 h (male, Sprague Dawley, rat, plasma, oral, 2.3 mg/kg/day, M, 2 hours, individual rats, read-out: Plasma Conc.) was 7650 ng/mL and 11.6 µM and the concentration at 5 days (male, Sprague Dawley, rat, plasma, oral, 2.3 mg/kg/day, M, 5 days of exposure, mean ± SD n=4, read-out: 5D Plasma Conc.) was 6640 ± 1730 nM. The concentration at 5 days (male, Sprague Dawley, rat, plasma, oral, 2.3 mg/kg/day, M, 5 days, individual rats, read-out: Plasma Conc.) was 5680 ng/mL and 8.58 µM, the concentration at 2 h (male, Sprague Dawley, rat, plasma, oral, 6.3 mg/kg/day, M, 2 h after first dose, mean ± SD n=4, read-out: 2 h Plasma Conc.) was 34 ± 5.5 µM and the concentration at 2 h (male, Sprague Dawley, rat, plasma, oral, 6.3 mg/kg/day, M, 2 hours, individual rats, read-out: Plasma Conc.) was 23700 ng/mL and 35.8 µM. The concentration at 5 days (male, Sprague Dawley, rat, plasma, oral, 6.3 mg/kg/day, M, 5 days of exposure, mean ± SD n=4, read-out: 5D Plasma Conc.) was 24500 ± 2300 nM, the concentration at 5 days (male, Sprague Dawley, rat, plasma, oral, 6.3 mg/kg/day, M, 5 days, individual rats, read-out: Plasma Conc.) was 23300 nM and the concentration at 2 h (male, Sprague Dawley, rat, plasma, oral, 17 mg/kg/day, M, 2 h after first dose, mean ± SD n=4, read-out: 2 h Plasma Conc.) was 126 ± 62 µM.
